Source: patent US5486525A, “Platelet activating factor antagonists: imidazopyridine indoles” (priority 1994, dated 1996)
Counter-ions that a name gives are not always drawn.

Target: T1, PAF receptor (Oryctolagus cuniculus, UniProt G1TEI7)
T1 construct: platelet membranes were prepared by centrifugation and washing; tissue Pel-Freez (Rogers, AR); host or cells: rabbit blood platelets (membranes prepared from citrated whole rabbit blood)
Test: PAF receptor binding assay: inhibition of specific [^3 H]C18 -PAF binding to rabbit platelet membranes
Settings: not given

T1 sequence (G1TEI7 1-342): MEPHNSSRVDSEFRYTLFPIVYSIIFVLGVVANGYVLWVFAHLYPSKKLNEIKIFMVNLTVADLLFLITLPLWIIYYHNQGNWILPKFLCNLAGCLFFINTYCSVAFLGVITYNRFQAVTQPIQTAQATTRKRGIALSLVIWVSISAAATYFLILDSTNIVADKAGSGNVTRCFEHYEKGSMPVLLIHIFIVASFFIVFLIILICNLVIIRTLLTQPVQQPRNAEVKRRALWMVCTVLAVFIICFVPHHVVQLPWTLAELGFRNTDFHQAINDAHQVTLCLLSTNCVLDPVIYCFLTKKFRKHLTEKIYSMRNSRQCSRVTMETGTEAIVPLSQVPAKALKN

| Compound | Ki | inhibition at 1 µM | inhibition at 100 µM |
| --- | --- | --- | --- |
| Cc1nc2cnccc2n1Cc1cccc(C(=O)c2cn(C(=O)N(C)C)c3ccccc23)c1 [Example 18, 1-N,N-Dimethylcarbamoyl-3-{3-[(1H-2-methylimidazo[4.5-c]pyrid-1-yl)methyl]benzoyl}indole] | 323 nM |  |  |
| Cc1nc2cnccc2n1CC(=O)c1cn(C(=O)N(C)C)c2ccccc12 [Example 26, 1-N,N-Dimethylcarbamoyl-3-[(1H-2-methylimidazo[4.5-c]pyrid-1-yl)methylcarbonyl]indole] |  | 7% |  |
| Cc1nc2ccn(Cc3ccc(C(=O)c4cn(C(=O)N(C)C)c5ccccc45)cc3)cc-2n1 [Example 16, 1-N,N-Dimethylcarbamoyl-3-[4-(5H-2-methylimidazo[4.5-c]pyrid-5-ylmethyl)benzoyl]indole] |  |  | 18% |
| COC(=O)c1cccc2c1c(C(=O)c1ccc(Cn3c(C(F)(F)F)nc4ccccc43)cc1)cn2C(=O)N(C)C [Example 162, 1-N,N-Dimethylcarbamoyl-4-methoxycarbonyl-3-{4-[(1H-2-(trifluoromethyl)benzimidazolyl)methyl]benzoyl}indole] | 14 nM |  |  |
| Cc1nc2cnccc2n1Cc1ccc(C(=O)c2cn(C(=O)N(C)C)c3cccc(Br)c23)cc1 [Example 102, 1-N,N-Dimethylcarbamoyl-4-bromo-3-{4-[(1H-2-methylimidazo[4.5-c]pyrid-1-yl)methyl]benzoyl}indole] | 10 nM |  |  |
| Cc1nc2ccncc2n1Cc1ccc(C(=O)c2cn(C(=O)N(C)C)c3cc(-c4ccc(F)cc4)ccc23)cc1 [Example 7, 1-N,N-Dimethylcarbamoyl-6-(4-fluorophenyl)-3-{4-[(3H-2-methylimidazo[4.5-c]pyrid-3-yl)methyl]benzoyl}indole] | 700 nM |  |  |
| COC(=O)c1cccc2c1c(C(=O)c1ccc(C(C)n3c(C)nc4cnccc43)cc1)cn2C(=O)N(C)C (stereo not drawn) [Example 156, 1-N,N-Dimethylcarbamoyl-4-methoxycarbonyl-3-{4-[1-(1H-2-methylimidazo[4.5-c]pyrid-1-yl)eth-1-yl]benzoyl}indole] | 19 nM |  |  |
| CCc1cccc2c1c(C(=O)c1ccc(Cn3c(C)nc4cnccc43)cc1)cn2C(=O)N(C)C [Example 143] | 0.9 nM |  |  |
| CN(C)C(=O)n1cc(C(=O)c2ccc(Cn3c(-c4ccccc4)nc4cnccc43)cc2)c2ccccc21 [Example 32] |  | 10% |  |
| CCOCCn1cc(C(=O)c2ccc(Cn3c(C)nc4cnccc43)cc2)c2c(Cl)cccc21 [Example 138, 1-(2-Ethoxyethyl)-4-chloro-3-{4-[(1H-2-methylimidazo[4.5-c]pyrid-1-yl)methyl]benzoyl}indole] | 2.2 nM |  |  |
| Cc1cccc2c1c(C(=O)c1ccc(Cn3c(C)nc4cnccc43)cc1)cn2C(=O)N(C)C [Example 122, 1-N,N-Dimethylcarbamoyl-4-methyl-3-(4-[(1H-2-methylimidazo[4.5-c]pyrid-1-yl)methyl]benzoyl}indole] | 0.8 nM |  |  |
| Cc1nc2ncccc2n1Cc1ccc(C(=O)c2cn(C(=O)N(C)C)c3ccccc23)cc1 [Example 28, 1-N,N-Dimethylcarbamoyl-3-{4-[(1H-2-methylimidazo[4.5-b]pyrid-1-yl)methyl]benzoyl}indole] | 87 nM |  |  |
| Cc1nc2cnccc2n1Cc1ccc(C(=O)c2cn(C(=O)N(C)C)c3cccc(C#N)c23)cc1 [Example 150, 1-N,N-Dimethylcarbamoyl-4-cyano-3-{4-[(1H-2-methylimidazo[4.5-c]pyrid-1-yl)methyl]benzoyl}indole hydrochloride] | 40 nM |  |  |
| Cc1nc2cnccc2n1Cc1ccc(C(=O)c2cn(C(=O)N(C)C)c3cc(-c4ccc(F)cc4)ccc23)cc1 [Example 4, 1-N,N-Dimethylcarbamoyl-6-(4-fluorophenyl)-3-{4-[(1H-2-methylimidazo[4.5-c]pyrid-1-yl)methyl]benzoyl}indole] | 2.3 nM |  |  |
| CC(C)c1nc2cnccc2n1Cc1ccc(C(=O)c2cn(C(=O)N(C)C)c3ccccc23)cc1 [Example 31] | 44 nM |  |  |
| CN(C)C(=O)n1cc(C(=O)c2ccc(Cn3cnc4cnccc43)cc2)c2ccccc21 [Example 30] | 342 nM |  |  |
| Cc1nc2cnccc2n1Cc1ccc(C(=O)c2cn(C(=O)N(C)C)c3cccc(C(=O)N(C)C)c23)cc1 [Example 112, 1,4-di-N,N-Dimethylcarbamoyl-3-{4-[(1H-2-methylimidazo[4.5-c]pyrid-1-yl)methyl]benzoyl}indole] | 150 nM |  |  |
| Cc1nc2cnccc2n1-c1ccc(C(=O)c2cn(C(=O)N(C)C)c3ccccc23)cc1 [Example 22, 1-N,N-Dimethylcarbamoyl-3-{4-[(1H-2-methylimidazo[4.5-c]pyrid-1-yl)]benzoyl}indole] | 146 nM |  |  |
| COC(=O)c1cccc2c1c(C(=O)c1ccc(Cn3c(C)nc4cnccc43)c(F)c1)cn2C(=O)N(C)C [Example 96, 1-N,N-Dimethylcarbamoyl-4-methoxycarbonyl-3-{3-fluoro-4-[(1H-2-methylimidazo[4,5-c]pyrid-1-yl)methyl]benzoyl}indole] | 7.7 nM |  |  |
| Cc1nc2cnccc2n1Cc1ccc(C(=O)c2cn(C(=O)N(C)C)c3ccccc23)cc1 [Example 14, 1-N,N-Dimethylcarbamoyl-3-{4-[(1H-2-methylimidazo[4.5-c]pyrid-1-yl)methyl]benzoyl}indole] | 5 nM |  |  |
| COC(=O)c1cccc2c1c(C(=O)c1ccc(Cn3c(C)nc4cnccc43)cc1)cn2S(=O)(=O)N(C)C [Example 131, 1-N,N-Dimethylsulfamoyl-4-methoxycarbonyl-3-{4-[(1H-2-methylimidazo[4.5-c]pyrid-1-yl)methyl]benzoyl}indole] | 4.7 nM |  |  |
| Cc1nc2cnccc2n1Cc1cccc(C(=O)c2cn(C(=O)N(C)C)c3cc(-c4ccc(F)cc4)ccc23)c1 [Example 12, 1-N,N-Dimethylcarbamoyl-6-(4-fluorophenyl)-3-{3-[(1H-2-methylimidazo[4.5-c]pyrid-1-yl)methyl]benzoyl}indole] | 140 nM |  |  |
| Cc1nc2ccncc2n1CC(=O)c1cn(C(=O)N(C)C)c2cc(-c3ccc(F)cc3)ccc12 [Example 23, 1-N,N-Dimethylcarbamoyl-6-(4-fluorophenyl)-3-[(3H-2-methylimidazo[4.5-c]pyrid-3-yl)methylcarbonyl]indole] |  | 7% |  |
| COC(=O)c1cccc2c1c(C(=O)c1ccc(Cn3c(C)nc4cc(Cl)c(Cl)cc43)cc1)cn2C(=O)N(C)C [Example 167, 1-N,N-Dimethylcarbamoyl-4-methoxycarbonyl-3-{4-[(1H-2-methyl-5,6-dichlorobenzimidazolyl)methyl]benzoyl}indole] | 450 nM |  |  |
| CN(C)C(=O)n1cc(C(=O)c2ccc(Cn3c(C(F)(F)F)nc4cnccc43)cc2)c2ccccc21 [Example 29] | 494 nM |  |  |
| Cc1nc2cccnc2n1Cc1ccc(C(=O)c2cn(C(=O)N(C)C)c3ccccc23)cc1 [Example 27, 1-N,N-Dimethylcarbamoyl-3-{4-[(3H-2-methylimidazo[4.5-b]pyrid-3-yl)methyl]benzoyl}indole] | 160 nM |  |  |
| Cc1nc2cnccc2n1CC(=O)c1cn(C(=O)N(C)C)c2cc(-c3ccc(F)cc3)ccc12 [Example 24, 1-N,N-Dimethylcarbamoyl-6-(4-fluorophenyl)-3-[(1H-2-methylimidazo[4.5-c]pyrid-1-yl)methylcarbonyl]indole] |  | 6% |  |

Same assay, conditions: Table 1; @ 1.0 μM; read-out: % Inhibition

| Compound | inhibition at 1 µM |
| --- | --- |
| Cc1nc2ccncc2n1CC(=O)c1cn(C(=O)N(C)C)c2ccccc12 [Example 25, 1-N,N-Dimethylcarbamoyl-3-[(3H-2-methylimidazo[4.5-c]pyrid-3-yl)methylcarbonyl]indole] | 14% |

Same assay, conditions: Table 1; rabbit platelet membranes, 0.6 nM [^3 H]C18 -PAF, 60 minutes at room temperature; Ki by Cheng and Prusoff

| Compound | Ki |
| --- | --- |
| COC(=O)c1cccc2c1c(C(=O)c1ccc(Cn3c(C)nc4c(Cl)nccc43)cc1)cn2C(=O)N(C)C [Example 174, 1-N,N-Dimethylcarbamoyl-4-methoxycarbonyl-3-{4-[(4-chloro-1H-2-methylimidazo[4.5-c]pyrid-1-yl)methyl]benzoyl}indole] | 4 nM |

Same assay, conditions: Table 1; rabbit platelet membranes, 0.6 nM [^3 H]C18 -PAF, 60 minutes at room temperature; Ki by Cheng and Prusoff; read-out: Ki

| Compound | Ki |
| --- | --- |
| Cc1nc2ccncc2n1Cc1ccc(C(=O)c2c[nH]c3cc(-c4ccc(F)cc4)ccc23)cc1 [Example 6, 6-(4-Fluorophenyl)-3-{4-[(3H-2-methylimidazo[4.5-c]pyrid-3-yl)methyl]benzoyl}indole] | 140 nM |
| 1-N,N-Dimethylcarbamoyl-4-chloro-3-{4-[(1H-2-methyl-5- and 6-chlorobenzimidazoyl)methyl]benzoyl}indole [Example 159] | 9 nM |
| COC(=O)c1cccc2c1c(C(=O)CCCCCn1c(C)nc3cnccc31)cn2C(=O)N(C)C [Example 126] | 62 nM |
| Cc1nc2ccncc2n1Cc1cccc(C(=O)c2c[nH]c3ccccc23)c1 [Example 19, 3-{3-[(3H-2-Methylimidazo[4.5-c]pyrid-3-yl)methyl]benzoyl}indole] | 280 nM |
| Cc1nc2cnccc2n1-c1ccc(C(=O)c2c[nH]c3cc(-c4ccc(F)cc4)ccc23)cc1 [Example 9, 6-(4-Fluorophenyl)-3-[4-(1H-2-methylimidazo[4.5-c]pyrid-1-yl)benzoyl]indole] | 60 nM |
| Cc1nc2cnccc2n1Cc1ccc(C(=O)c2c[nH]c3cc(-c4ccc(F)cc4)ccc23)cc1 [Example 3, 6-(4-Fluorophenyl)-3-{4-[(1H-2-methylimidazo[4.5-c]pyrid-1-yl)methyl]benzoyl}indole] | 75 nM |
| Cc1nc2cnccc2n1Cc1ccc(C(=O)c2c[nH]c3ccccc23)cc1 [Example 13, 3-{4-[(1H-2-Methylimidazo[4.5-c]pyrid-1-yl)methyl]benzoyl}indole] | 150 nM |
| COC(=O)c1ccc(C(=O)OC)c2c(C(=O)c3ccc(Cn4c(C)nc5cnccc54)cc3)c[nH]c12 [Example 90, 4,7-Dimethoxycarbonyl-3-{4-[(1H-2-methylimidazo[4,5-c]pyrid-1-yl)methyl]benzoyl}indole] | 2.9 nM |
| COC(=O)c1cccc2c1c(S(=O)(=O)c1ccc(Cn3c(C)nc4cnccc43)cc1)cn2C(=O)N(C)C [Example 141, 1-N,N-Dimethylcarbamoyl-4-methoxycarbonyl-3-{4-[(1H-2-methylimidazo[4.5-c]pyrid-1-yl)methyl]phenylsulfonyl}indole] | 20 nM |
| Cc1nc2cnccc2n1Cc1cccc(C(=O)c2c[nH]c3cc(-c4ccc(F)cc4)ccc23)c1 [Example 11, 6-(4-Fluorophenyl)-3-{3-[(1H-2-methylimidazo[4.5-c]pyrid-1-yl)methyl]benzoyl}indole] | 86 nM |
